Results published in US20240182460A1, “ALLOSTERIC CHROMENONE INHIBITORS OF PHOSPHOINOSITIDE 3-KINASE (PI3K) FOR THE TREATMENT OF DISEASE” (PETRA PHARMA CORPORATION, priority 2022, published 2024).

target: PI3Kα E545K (Homo sapiens, UniProt P42336, E545K); assay: PI3Kα E545K mutant in vitro cell based assay, MDA-MB-361 cells; parameters: MDA-MB-361 (ATCC-HTB-27) cell line (PI3Kα E545K); host or cells: MDA-MB-361; details: MDA-MB-361 cell line, 0% FBS, no insulin, 3 hours treatment
Excerpt: PI3K-Alpha Kinase (PI3Kα) Activity: Wild-Type PI3Kα, H1047R Mutant PI3Kα, and E545K Mutant PI3Kα In Vitro Cell Based Assays and Determination of IC50 Values for Inhibitors
The MDA-MB-453 (ATCC-HTB-131) cell line (PI3Kα H1047R) and MCF-7 (ATCC-HTB-22) cell line (PI3Kα E545K), MDA-MB-361 (ATCC-HTB-27) cell line (PI3Kα E545K), and SKBR3 (ATCC-HTB-30) cell line (wild type PI3Kα) were obtained from the American Type Culture Collection (Manassas, VA). MDA-MB-453 cells were maintained in Dulbecco's Modified Eagle Media (DMEM, Gibco 12430) supplemented with 10% Fetal Bovine Serum, heat inactivated (FBS HI, Gibco 10082), 1× non-essential amino acids (NEAA, Gibco 11140), 1 mM sodium pyruvate (Gibco 11360) and 1× Anti-Anti (Gibco 15240). MCF-7 cells were maintained in Minimum Essential Media (MEM) (Gibco 11095) supplemented with 10% Fetal Bovine Serum, heat inactivated (FBS HI, Gibco 10082), 1× non-essential amino acids (NEAA, Gibco 11140), 1 mM sodium pyruvate (Gibco 11360), 1× Anti-Anti (Gibco 15240) and 10 μg/mL human insulin (Sigma I 9278). MDA-MB-361 cells were maintained in Dulbecco's Modified Eagle Media (DMEM, Gibco 12430) supplemented with 20% Fetal Bovine Serum, heat inactivated (FBS HI, Gibco 10082), 1× non-essential amino acids (NEAA, Gibco 11140), 1 mM sodium pyruvate (Gibco 11360) and 1× Anti-Anti (Gibco 15240). SKBR3 cells were maintained in McCoy's 5A (Gibco 16600) supplemented with 10% Fetal Bovine Serum, heat inactivated (FBS HI, Gibco 10082), and 1× Anti-Anti (Gibco 15240). Cultures were maintained in a humidified incubator at 37° C. under 5% CO2/95% air.
For compound testing in 0% FBS, MDA-MB-453, MCF-7 and SKBR3 cells were seeded at a density of 1.5×10^4, 1.0×10^4, and 1.0×10^4 cells, respectively, per well in white 384-well plates in 20 μl of Minimum Essential Media (MEM) assay media with 1×NEAA, 1 mM sodium pyruvate, and 1 μg/mL human insulin (Sigma 19278) (Assay Medium); while MDA-MB-361 cells were seeded at a density of 1.5×10^4 per well in white 384-well plates in 20 μl Assay Medium without insulin. After plating, cells were allowed to attach overnight. Compounds dissolved in 10 mM stock solutions in DMSO were serially diluted 1:3 in DMSO to generate a 10-point dilution series and plated using an acoustic liquid handler system (Echo 550 Series Liquid Handler, Labcyte). A 5× intermediate compound dilution plate in MEM with 1×NEAA and 1 mM sodium pyruvate (150 μM starting compound concentration in 1.5% DMSO) was then prepared. Five μl of the intermediate serially diluted compounds were added to the cell plate to final concentrations ranging from […] in 0.3% DMSO. 0.3% DMSO alone was used to establish the maximum (MAX) signal and GDC-0032 at a final concentration of 1 μM was used as a reference compound for the minimum (MIN) signal. After 3 hours treatment, the medium was removed, and the cells were lysed in 10 μL of 1× SureFire Lysis buffer with shaking for 10 minutes at room temperature. The Acceptor Mix (Reaction Buffer 1+Reaction Buffer 2+Activation Buffer+SureFire Ultra Acceptor Beads) was prepared by diluting Activation buffer 25-fold in combined Reaction Buffer 1 and Reaction Buffer 2.
The Acceptor beads were diluted 50-fold in the combined Reaction Buffers. Five μL of Acceptor Mix was added to each well, the plate was sealed and covered with foil and incubated for 1 hour at room temperature. The Donor Mix (dilution buffer+SureFire Ultra Donor Beads) was prepared by diluting Donor Beads 50-fold in dilution buffer. Five μL of the Donor Mix was added to each well and the plate sealed and covered with foil and incubated for 1-2 hours at room temperature in the dark. The plates were read on a Neo2 plate reader instrument from Biotek using standard AlphaLisa settings.
Compounds were tested in duplicate and the % inhibition at each compound concentration was used to generate two dose response curves. One IC50 was generated using average % inhibition at each compound concentration. […]

PI3Kα E545K, sequence (P42336 whole entry E545K): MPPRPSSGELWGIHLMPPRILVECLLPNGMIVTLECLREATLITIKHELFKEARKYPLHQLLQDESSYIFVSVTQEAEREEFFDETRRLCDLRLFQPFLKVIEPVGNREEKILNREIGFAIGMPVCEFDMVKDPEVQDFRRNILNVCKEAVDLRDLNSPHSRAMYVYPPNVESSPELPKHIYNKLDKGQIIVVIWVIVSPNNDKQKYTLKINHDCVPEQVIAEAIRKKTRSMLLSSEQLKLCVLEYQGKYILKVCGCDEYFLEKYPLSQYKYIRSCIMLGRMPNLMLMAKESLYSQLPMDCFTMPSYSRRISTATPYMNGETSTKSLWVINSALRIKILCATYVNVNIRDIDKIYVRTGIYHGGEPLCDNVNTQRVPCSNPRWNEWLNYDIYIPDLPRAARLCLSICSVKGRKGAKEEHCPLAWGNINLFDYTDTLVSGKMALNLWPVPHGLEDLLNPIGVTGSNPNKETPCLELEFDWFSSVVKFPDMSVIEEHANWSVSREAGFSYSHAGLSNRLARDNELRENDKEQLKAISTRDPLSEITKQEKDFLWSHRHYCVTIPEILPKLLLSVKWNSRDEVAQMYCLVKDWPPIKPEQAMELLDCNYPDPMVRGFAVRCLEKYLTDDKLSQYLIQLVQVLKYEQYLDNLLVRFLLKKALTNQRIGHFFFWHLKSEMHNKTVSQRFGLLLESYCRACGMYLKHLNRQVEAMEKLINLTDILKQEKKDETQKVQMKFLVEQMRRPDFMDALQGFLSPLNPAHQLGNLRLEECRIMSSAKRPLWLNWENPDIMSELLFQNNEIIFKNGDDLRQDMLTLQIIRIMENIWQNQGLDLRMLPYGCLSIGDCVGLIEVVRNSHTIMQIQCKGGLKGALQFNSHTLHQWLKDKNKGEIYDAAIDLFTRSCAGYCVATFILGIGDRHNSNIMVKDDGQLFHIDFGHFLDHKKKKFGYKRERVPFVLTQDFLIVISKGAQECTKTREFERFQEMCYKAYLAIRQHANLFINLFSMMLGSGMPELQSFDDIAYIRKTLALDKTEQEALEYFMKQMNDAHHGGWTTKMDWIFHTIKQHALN
PI3Kα E545K, sequence (P27986 whole entry partner): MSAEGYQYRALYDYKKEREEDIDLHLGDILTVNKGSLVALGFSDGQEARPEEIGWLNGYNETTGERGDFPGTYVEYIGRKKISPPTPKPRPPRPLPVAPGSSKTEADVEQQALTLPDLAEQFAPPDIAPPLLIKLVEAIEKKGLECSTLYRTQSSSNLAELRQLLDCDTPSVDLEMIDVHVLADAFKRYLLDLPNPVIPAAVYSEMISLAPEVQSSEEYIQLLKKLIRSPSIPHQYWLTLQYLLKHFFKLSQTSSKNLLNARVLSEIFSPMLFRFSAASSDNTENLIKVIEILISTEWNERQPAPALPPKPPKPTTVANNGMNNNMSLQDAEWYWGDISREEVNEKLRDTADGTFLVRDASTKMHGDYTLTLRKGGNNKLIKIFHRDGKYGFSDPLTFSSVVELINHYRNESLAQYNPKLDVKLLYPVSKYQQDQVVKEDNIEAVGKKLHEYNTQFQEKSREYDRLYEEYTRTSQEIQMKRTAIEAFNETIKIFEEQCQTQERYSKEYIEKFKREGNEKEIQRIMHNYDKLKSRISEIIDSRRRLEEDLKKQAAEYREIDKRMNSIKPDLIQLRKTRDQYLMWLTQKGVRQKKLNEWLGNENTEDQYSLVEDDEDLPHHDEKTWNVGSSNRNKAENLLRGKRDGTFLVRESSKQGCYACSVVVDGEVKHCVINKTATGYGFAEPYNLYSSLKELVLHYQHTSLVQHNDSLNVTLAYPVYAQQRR

IC50 [nM] | Structure (SMILES)
< 500 | Cc1cc([C@@H](C)Oc2ccc(Cl)nc2C(N)=O)c2oc(-c3cnn4c3COCC4)c(C)c(=O)c2c1 [Example 40A, 6-Chloro-3-[(1R)-1-[2-(6,7-dihydro-4H-pyrazolo[5,1-c][1,4]oxazin-3-yl)-3,6-dimethyl-4-oxo-chromen-8-yl]ethoxy]pyridine-2-carboxamide]
< 500 | Cc1cc([C@@H](C)Oc2ccc(Cl)nc2C(N)=O)c2oc(C3CC3)c(C)c(=O)c2c1 [Example 63A, 6-Chloro-3-[(1R)-1-(2-cyclopropyl-3,6-dimethyl-4-oxo-chromen-8-yl)ethoxy]pyridine-2-carboxamide]
< 500 | Cc1cc([C@@H](C)Oc2ccc(Cl)nc2S(N)(=O)=O)c2oc(-c3cnc4c(c3)OCO4)c(C)c(=O)c2c1 [Example 15A, 6-Chloro-3-[(1R)-1-[2-([1,3]dioxolo[4,5-b]pyridin-6-yl)-3,6-dimethyl-4-oxo-chromen-8-yl]ethoxy]pyridine-2-sulfonamide]
< 500 | Cc1cc([C@@H](C)Oc2ccc(Cl)nc2S(N)(=O)=O)c2oc(-c3ccccc3)c(C)c(=O)c2c1 [Example 13A, 6-Chloro-3-[(1R)-1-(3,6-dimethyl-4-oxo-2-phenyl-chromen-8-yl)ethoxy]pyridine-2-sulfonamide]
< 500 | Cc1cc([C@@H](C)Oc2ccc(Cl)nc2C(N)=O)c2oc(-c3ccc4cc[nH]c(=O)c4c3)c(C)c(=O)c2c1 [Example 120A, 6-Chloro-3-[(1R)-1-[3,6-dimethyl-4-oxo-2-(1-oxo-2H-isoquinolin-7-yl)chromen-8-yl]ethoxy]pyridine-2-carboxamide]
< 500 | CCc1nc2ccc(-c3oc4c([C@@H](C)Oc5ccc(Cl)nc5C(N)=O)cc(C)cc4c(=O)c3C)cc2o1 [Example 84C, 6-Chloro-3-[(1R)-1-[2-(2-ethyl-1,3-benzoxazol-6-yl)-3,6-dimethyl-4-oxo-chromen-8-yl]ethoxy]pyridine-2-carboxamide]
< 500 | Cc1cc([C@@H](C)Oc2ccc(Cl)nc2C(N)=O)c2oc(-c3ccc4nn(C5COC5)cc4c3)c(C)c(=O)c2c1 [Example 77C, 6-Chloro-3-[(1R)-1-[3,6-dimethyl-2-[2-(oxetan-3-yl)indazol-5-yl]-4-oxo-chromen-8-yl]ethoxy]pyridine-2-carboxamide]
< 500 | Cc1cc([C@@H](C)Oc2ccc(Cl)nc2C(N)=O)c2oc(-c3ccc4nn([C@H]5C[C@H](O)C5)cc4c3)c(C)c(=O)c2c1 [Example 134C, 6-Chloro-3-[(1R)-1-[2-[2-(3-hydroxycyclobutyl)indazol-5-yl]-3,6-dimethyl-4-oxo-chromen-8-yl]ethoxy]pyridine-2-carboxamide]
< 500 | Cc1cc([C@@H](C)Oc2ccc(C)nc2S(N)(=O)=O)c2oc(-c3ccccc3)c(C)c(=O)c2c1 [Example 122C, 3-[(1R)-1-(3,6-Dimethyl-4-oxo-2-phenyl-chromen-8-yl)ethoxy]-6-methyl-pyridine-2-sulfonamide]
< 500 | Cc1cc([C@@H](C)Oc2ccc(Cl)nc2C(=O)NOCC2CC2)c2oc(-c3ccc4nn(C)cc4c3)c(C)c(=O)c2c1 [Example 28A, 6-Chloro-N-(cyclopropylmethoxy)-3-[(1R)-1-[3,6-dimethyl-2-(2-methylindazol-5-yl)-4-oxo-chromen-8-yl]ethoxy]pyridine-2-carboxamide]
< 500 | Cc1cc([C@@H](C)Oc2ccc(Cl)nc2S(N)(=O)=O)c2oc(-c3cnn4c3COCC4)c(C)c(=O)c2c1 [Example 3B, 6-Chloro-3-[(1R)-1-[2-(6,7-dihydro-4H-pyrazolo[5,1-c][1,4]oxazin-3-yl)-3,6-dimethyl-4-oxo-chromen-8-yl]ethoxy]pyridine-2-sulfonamide]
< 500 | Cc1cc([C@@H](C)Oc2ccc(Cl)nc2C(N)=O)c2oc(-c3ccc4c(c3)OC(F)(F)O4)c(C)c(=O)c2c1 [Example 60A, 6-Chloro-3-[(1R)-1-[2-(2,2-difluoro-1,3-benzodioxol-5-yl)-3,6-dimethyl-4-oxo-chromen-8-yl]ethoxy]pyridine-2-carboxamide]
< 500 | Cc1cc([C@@H](C)Oc2cccnc2-c2ccccc2F)c2oc(-c3cc[nH]c(=O)c3)c(C)c(=O)c2c1 [Example 29A, 4-[8-[(1R)-1-[[2-(2-Fluorophenyl)-3-pyridyl]oxy]ethyl]-3,6-dimethyl-4-oxo-chromen-2-yl]-1H-pyridin-2-one]
< 500 | Cc1cc([C@@H](C)Oc2cccnc2-c2ccccc2F)c2oc(-c3ccc(=O)[nH]c3)c(C)c(=O)c2c1 [Example 30A]
< 500 | CONS(=O)(=O)c1nc(Cl)ccc1O[C@H](C)c1cc(C)cc2c(=O)c(C)c(-c3cnn(CC(C)(C)O)c3)oc12 [Example 121C, 6-Chloro-3-[(1R)-1-[2-[1-(2-hydroxy-2-methyl-propyl)pyrazol-4-yl]-3,6-dimethyl-4-oxo-chromen-8-yl]ethoxy]-N-methoxy-pyridine-2-sulfonamide]
